Tests used:
[1] = xn = mol fraction of the nth substance listed; settings: 101 kPa, Liquid
[2] = molar heat capacity at constant pressure; xn = mol fraction of the nth substance listed; settings: 101 kPa, Liquid

CCCC[n+]1cccc(C)c1.F[B-](F)(F)F [1-butyl-3-methylpyridinium tetrafluoroborate] + O
Settings	mass density, [1] [kg/m3]	molar heat capacity at constant pressure, [2] [J/K/mol]
293.15 K, x1 = 0.0015	–	76.7
293.15 K, x1 = 0.002	–	77.4
293.15 K, x1 = 0.0027	–	77.7
293.15 K, x1 = 0.0036	–	78.1
293.15 K, x1 = 0.0102	–	81
293.15 K, x1 = 0.0494	1066	–
293.15 K, x1 = 0.0938	–	112.7
293.15 K, x1 = 0.0973	1095.9	–
293.15 K, x1 = 0.1885	–	142.4
293.15 K, x1 = 0.2312	1139.7	–
293.15 K, x1 = 0.2704	–	167
293.15 K, x1 = 0.3559	1157.3	–
293.15 K, x1 = 0.362	–	193.8
293.15 K, x1 = 0.4035	1161.8	–
293.15 K, x1 = 0.4454	–	218.2
293.15 K, x1 = 0.5195	1167.9	–
293.15 K, x1 = 0.6432	–	275.2
293.15 K, x1 = 0.7087	1179.5	–
293.15 K, x1 = 0.7512	1181.2	–
293.15 K, x1 = 0.8094	–	325.2
293.15 K, x1 = 0.8791	–	346
293.15 K, x1 = 0.8838	1183.2	–
293.15 K, x1 = 0.9468	–	367.8
293.15 K, x1 = 1	1188.6	385.8
298.15 K, x1 = 0.0015	–	76.7
298.15 K, x1 = 0.002	–	77.4
298.15 K, x1 = 0.0027	–	77.7
298.15 K, x1 = 0.0036	–	78.2
298.15 K, x1 = 0.0102	–	81.1
298.15 K, x1 = 0.0494	1063.3	–
298.15 K, x1 = 0.0938	–	113.1
298.15 K, x1 = 0.0973	1092.7	–
298.15 K, x1 = 0.1885	–	143.1
298.15 K, x1 = 0.2312	1136	–
298.15 K, x1 = 0.2704	–	167.8
298.15 K, x1 = 0.3559	1153.6	–
298.15 K, x1 = 0.362	–	195
298.15 K, x1 = 0.4035	1158.2	–
298.15 K, x1 = 0.4454	–	219.3
298.15 K, x1 = 0.5195	1164.3	–
298.15 K, x1 = 0.6432	–	276.9
298.15 K, x1 = 0.7087	1176	–
298.15 K, x1 = 0.7512	1177.8	–
298.15 K, x1 = 0.8094	–	327.3
298.15 K, x1 = 0.8791	–	348.3
298.15 K, x1 = 0.8838	1179.8	–
298.15 K, x1 = 0.9468	–	370.4
298.15 K, x1 = 1	1185.2	387.7
303.15 K, x1 = 0.0015	–	76.8
303.15 K, x1 = 0.002	–	77.5
303.15 K, x1 = 0.0027	–	77.7
303.15 K, x1 = 0.0036	–	78.2
303.15 K, x1 = 0.0102	–	81.2
303.15 K, x1 = 0.0494	1060.4	–
303.15 K, x1 = 0.0938	–	113.4
303.15 K, x1 = 0.0973	1089.4	–
303.15 K, x1 = 0.1885	–	143.8
303.15 K, x1 = 0.2312	1132.3	–
303.15 K, x1 = 0.2704	–	168.6
303.15 K, x1 = 0.3559	1150	–
303.15 K, x1 = 0.362	–	196.1
303.15 K, x1 = 0.4035	1154.5	–
303.15 K, x1 = 0.4454	–	220.5
303.15 K, x1 = 0.5195	1160.8	–
303.15 K, x1 = 0.6432	–	278.6
303.15 K, x1 = 0.7087	1172.5	–
303.15 K, x1 = 0.7512	1174.3	–
303.15 K, x1 = 0.8094	–	329.5
303.15 K, x1 = 0.8791	–	350.8
303.15 K, x1 = 0.8838	1176.3	–
303.15 K, x1 = 0.9468	–	373
303.15 K, x1 = 1	1181.7	390.1
308.15 K, x1 = 0.0015	–	76.9
308.15 K, x1 = 0.002	–	77.6
308.15 K, x1 = 0.0027	–	77.8
308.15 K, x1 = 0.0036	–	78.3
308.15 K, x1 = 0.0102	–	81.3
308.15 K, x1 = 0.0494	1057.5	–
308.15 K, x1 = 0.0938	–	113.8
308.15 K, x1 = 0.0973	1086	–
308.15 K, x1 = 0.1885	–	144.5
308.15 K, x1 = 0.2312	1128.7	–
308.15 K, x1 = 0.2704	–	169.5
308.15 K, x1 = 0.3559	1146.4	–
308.15 K, x1 = 0.362	–	197.3
308.15 K, x1 = 0.4035	1150.9	–
308.15 K, x1 = 0.4454	–	221.7
308.15 K, x1 = 0.5195	1157.2	–
308.15 K, x1 = 0.6432	–	280.3
308.15 K, x1 = 0.7087	1169.1	–
308.15 K, x1 = 0.7512	1170.8	–
308.15 K, x1 = 0.8094	–	331.7
308.15 K, x1 = 0.8791	–	353.3
308.15 K, x1 = 0.8838	1172.9	–
308.15 K, x1 = 0.9468	–	375.7
308.15 K, x1 = 1	1178.3	392.8
313.15 K, x1 = 0.0015	–	77
313.15 K, x1 = 0.002	–	77.6
313.15 K, x1 = 0.0027	–	77.9
313.15 K, x1 = 0.0036	–	78.4
313.15 K, x1 = 0.0102	–	81.5
313.15 K, x1 = 0.0494	1054.5	–
313.15 K, x1 = 0.0938	–	114.2
313.15 K, x1 = 0.0973	1082.5	–
313.15 K, x1 = 0.1885	–	145.2
313.15 K, x1 = 0.2312	1125	–
313.15 K, x1 = 0.2704	–	170.4
313.15 K, x1 = 0.3559	1142.7	–
313.15 K, x1 = 0.362	–	198.4
313.15 K, x1 = 0.4035	1147.3	–
313.15 K, x1 = 0.4454	–	222.8
313.15 K, x1 = 0.5195	1153.7	–
313.15 K, x1 = 0.6432	–	282.1
313.15 K, x1 = 0.7087	1165.6	–
313.15 K, x1 = 0.7512	1167.4	–
313.15 K, x1 = 0.8094	–	334
313.15 K, x1 = 0.8791	–	355.8
313.15 K, x1 = 0.8838	1169.5	–
313.15 K, x1 = 0.9468	–	378.4
313.15 K, x1 = 1	1174.9	395.9
318.15 K, x1 = 0.0015	–	77.1
318.15 K, x1 = 0.002	–	77.7
318.15 K, x1 = 0.0027	–	78
318.15 K, x1 = 0.0036	–	78.4
318.15 K, x1 = 0.0102	–	81.7
318.15 K, x1 = 0.0494	1051.3	–
318.15 K, x1 = 0.0938	–	114.7
318.15 K, x1 = 0.0973	1079	–
318.15 K, x1 = 0.1885	–	146
318.15 K, x1 = 0.2312	1121.2	–
318.15 K, x1 = 0.2704	–	171.4
318.15 K, x1 = 0.3559	1139.1	–
318.15 K, x1 = 0.362	–	199.5
318.15 K, x1 = 0.4035	1143.7	–
318.15 K, x1 = 0.4454	–	224
318.15 K, x1 = 0.5195	1150.2	–
318.15 K, x1 = 0.6432	–	283.8
318.15 K, x1 = 0.7087	1162.2	–
318.15 K, x1 = 0.7512	1163.9	–
318.15 K, x1 = 0.8094	–	336.3
318.15 K, x1 = 0.8791	–	358.5
318.15 K, x1 = 0.8838	1166.1	–
318.15 K, x1 = 0.9468	–	381.3
318.15 K, x1 = 1	1171.6	399.3

From the NIST ThermoML archive (doi:10.1021/je7002836)
